# Test results taken from ChEMBL document CHEMBL5537154, “Smart glypican-3-targeting peptide-chlorin e6 conjugates for targeted photodynamic therapy of hepatocellular carcinoma” (Eur J Med Chem, 2024).
# The source made the active and inactive calls. The calls are words filed in the database; no cut-off is given here. Peptide text beside a SMILES is read from it.
# Experiments:
# [1] = Antiproliferative activity against human HUVEC cells under 10 J/cm2 light irradiation at 660 nm by CCK8 assay; assay type: toxicity, cell-based
# [2] = test system: HepG2; assay: Antiproliferative activity against human HepG2 cells under dark condition by CCK8 assay; assay type: functional, cell-based
# [3] = target: chymotrypsin (Homo sapiens, UniProt P17538+P40313+Q6GPI1+Q99895); assay: Stability of compound assessed as chymotrypsin (unknown origin)-mediated compound degradation in PBS at pH 7.4 by measuring half life; assay type: ADME, protein assay
# [4] = Antiproliferative activity against human HUVEC cells under dark condition by CCK8 assay; assay type: toxicity, cell-based
# [5] = test system: MCF7; assay: Antiproliferative activity against human MCF7 cells under 10 J/cm2 light irradiation at 660 nm by CCK8 assay; assay type: functional, cell-based; details: MCF7, light or radiation study
# [6] = test system: HepG2; assay: Antiproliferative activity against human HepG2 cells under 10 J/cm2 light irradiation at 660 nm by CCK8 assay; assay type: functional, cell-based; details: HepG2, light or radiation study
# [7] = test system: Huh-7; assay: Antiproliferative activity against human Huh-7 cells under dark condition by CCK8 assay; assay type: functional, cell-based
# [8] = Photostability of compound under 250 mW/cm2 light irradiation at 660 nm incubated for 10 mins by UV spectrophotometry; assay type: physicochemical; details: 0.66 µM
# [9] = test system: MCF7; assay: Antiproliferative activity against human MCF7 cells under dark condition by CCK8 assay; assay type: functional, cell-based
# [10] = test system: Huh-7; assay: Antiproliferative activity against human Huh-7 cells under 10 J/cm2 light irradiation at 660 nm by CCK8 assay; assay type: functional, cell-based; details: Huh-7, light or radiation study
# [11] = test system: HeLa; assay: Antiproliferative activity against human HeLa cells under 10 J/cm2 light irradiation at 660 nm by CCK8 assay; assay type: functional, cell-based; details: light or radiation study
# [12] = test system: HeLa; assay: Antiproliferative activity against human HeLa cells under dark condition by CCK8 assay; assay type: functional, cell-based
# [13] = Partition coefficient, logP of compound; assay type: physicochemical; details: octanol/water
# [14] = Aggregation property of compound in PBS; assay type: physicochemical; details: buffer
# [15] = Toxicity in BALB/C nude mouse model xenografted with human HepG2 cells assessed as damage in heart at 1 uM/kg, iv administered every two days for 21 days along with 250 mW/cm2 light irradiation at 660 nm for 10 mins at 1 hr post-compound administration by H and E staining based analysis; assay type: organism-based; details: in vivo, 505.17 h, time 505.166 hrs
# [16] = Drug uptake in human HUVEC cells at 500 nM incubated for 0.5 hrs by flow cytometry; assay type: ADME, cell-based; details: 0.5 µM
# [17] = […] assessed as decrease in fluorescence intensity of DMA; assay type: functional
# [18] = Toxicity in BALB/C nude mouse model xenografted with human HepG2 cells assessed as damage in spleen at 1 uM/kg, iv administered every two days for 21 days along with 250 mW/cm2 light irradiation at 660 nm for 10 mins at 1 hr post-compound administration by H and E staining based analysis; assay type: organism-based; details: in vivo, 505.17 h, time 505.166 hrs
# [19] = Toxicity in BALB/C nude mouse model xenografted with human HepG2 cells assessed as damage in liver at 1 uM/kg, iv administered every two days for 21 days along with 250 mW/cm2 light irradiation at 660 nm for 10 mins at 1 hr post-compound administration by H and E staining based analysis; assay type: organism-based; details: in vivo, 505.17 h, time 505.166 hrs
# [20] = Drug distribution in tumor of BALB/C nude mouse model xenografted with human HepG2 cells at 1 to 2 uM/kg, iv measured for 1 to 4 hrs by fluorescence imaging analysis; assay type: ADME, organism-based, Neoplasm; details: in vivo, dose lower 1 µM/Kg, time lower 1 hrs, dose upper 2 µM/Kg, time upper 4 hrs
# [21] = Toxicity in BALB/C nude mouse model xenografted with human HepG2 cells assessed as drug tolerance at 1 uM/kg, iv administered every two days for 21 days along with 250 mW/cm2 light irradiation at 660 nm for 10 mins at 1 hr post-compound administration; assay type: organism-based; details: in vivo, 505.17 h, time 505.166 hrs
# [22] = Toxicity in BALB/C nude mouse model xenografted with human HepG2 cells assessed as change in spleen weight at 1 uM/kg, iv administered every two days for 21 days along with 250 mW/cm2 light irradiation at 660 nm for 10 mins at 1 hr post-compound administration; assay type: organism-based; details: in vivo, 505.17 h, time 505.166 hrs
# [23] = Toxicity in BALB/C nude mouse model xenografted with human HepG2 cells assessed as change in lung weight at 1 uM/kg, iv administered every two days for 21 days along with 250 mW/cm2 light irradiation at 660 nm for 10 mins at 1 hr post-compound administration; assay type: organism-based; details: in vivo, 505.17 h, time 505.166 hrs
# [24] = test system: MCF7; assay: Antitumor activity against human MCF7 cells xenografted in BALB/C nude mouse model assessed as decrease in tumor growth at 1 uM/kg, iv administered every two days for 21 days along with 250 mW/cm2 light irradiation at 660 nm for 10 mins at 1 hr post-compound administration; assay type: functional, organism-based; details: time 505.166 hrs
# [25] = Toxicity in BALB/C nude mouse model xenografted with human HepG2 cells assessed as change in heart weight at 1 uM/kg, iv administered every two days for 21 days along with 250 mW/cm2 light irradiation at 660 nm for 10 mins at 1 hr post-compound administration; assay type: organism-based; details: in vivo, 505.17 h, time 505.166 hrs
# [26] = Toxicity in BALB/C nude mouse model xenografted with human HepG2 cells assessed as damage in kidney at 1 uM/kg, iv administered every two days for 21 days along with 250 mW/cm2 light irradiation at 660 nm for 10 mins at 1 hr post-compound administration by H and E staining based analysis; assay type: organism-based; details: in vivo, 505.17 h, time 505.166 hrs
# [27] = test system: HepG2; assay: Induction of ROS generation in human HepG2 cells at 10 uM preincubated for 24 hrs followed by DCFH-DA probe addition and further incubated under dark condition for 20 mins prior and 20 mins post- light irradiation of 10 J/cm2 at 660 nm by flow cytometry; assay type: functional, cell-based; details: time 24.66 hrs
# [28] = test system: HepG2; assay: Antitumor activity in human HepG2 cells xenografted in BALB/C nude mouse model assessed as tumor growth inhibition at 1 uM/kg, iv administered every two days for 21 days along with 250 mW/cm2 light irradiation at 660 nm for 10 mins at 1 hr post-compound administration relative to control; assay type: functional; details: time 505.166 hrs, 505.17 h, at 1 µmol/kg
# [29] = Toxicity in BALB/C nude mouse model xenografted with human HepG2 cells assessed as body weight loss at 1 uM/kg, iv administered every two days for 21 days along with 250 mW/cm2 light irradiation at 660 nm for 10 mins at 1 hr post-compound administration; assay type: organism-based; details: in vivo, 505.17 h, time 505.166 hrs
# [30] = Drug distribution in BALB/C nude mouse model xenografted with human HepG2 cells at 1 to 2 uM/kg, iv measured after 1 hr by fluorescence imaging analysis; assay type: ADME, organism-based; details: in vivo, dose 1-2 µM/Kg
# [31] = Drug distribution in tumor of BALB/C nude mouse model xenografted with human HepG2 cells at 1 to 2 uM/kg, iv measured after 2 hrs by fluorescence imaging analysis; assay type: ADME, organism-based, Neoplasm; details: in vivo, dose 1-2 µM/Kg
# [32] = test system: HepG2; assay: Induction of ROS generation in human HepG2 cells at 10 uM incubated for 24 hrs by DCFH-DA probe based flow cytometry; assay type: functional, cell-based
# [33] = Toxicity in BALB/C nude mouse model xenografted with human HepG2 cells assessed as change in liver weight at 1 uM/kg, iv administered every two days for 21 days along with 250 mW/cm2 light irradiation at 660 nm for 10 mins at 1 hr post-compound administration; assay type: organism-based; details: in vivo, 505.17 h, time 505.166 hrs
# [34] = Toxicity in BALB/C nude mouse model xenografted with human HepG2 cells assessed as damage in lung at 1 uM/kg, iv administered every two days for 21 days along with 250 mW/cm2 light irradiation at 660 nm for 10 mins at 1 hr post-compound administration by H and E staining based analysis; assay type: organism-based; details: in vivo, 505.17 h, time 505.166 hrs
# [35] = Drug uptake in human MCF7 cells incubated for 2 hrs by fluorescence based assay; assay type: ADME, cell-based; details: mcf7, 2 h
# [36] = target: Glypican-3 (Homo sapiens, UniProt P51654); assay: Binding affinity to GPC3 (unknown origin) assessed as dissociation constant by fluorescence polarization assay
# [37] = Toxicity in BALB/C nude mouse model xenografted with human HepG2 cells assessed as change in kidney weight at 1 uM/kg, iv administered every two days for 21 days along with 250 mW/cm2 light irradiation at 660 nm for 10 mins at 1 hr post-compound administration; assay type: organism-based; details: in vivo, 505.17 h, time 505.166 hrs
# Chain of Glypican-3 (P51654 25-358 limits assumed): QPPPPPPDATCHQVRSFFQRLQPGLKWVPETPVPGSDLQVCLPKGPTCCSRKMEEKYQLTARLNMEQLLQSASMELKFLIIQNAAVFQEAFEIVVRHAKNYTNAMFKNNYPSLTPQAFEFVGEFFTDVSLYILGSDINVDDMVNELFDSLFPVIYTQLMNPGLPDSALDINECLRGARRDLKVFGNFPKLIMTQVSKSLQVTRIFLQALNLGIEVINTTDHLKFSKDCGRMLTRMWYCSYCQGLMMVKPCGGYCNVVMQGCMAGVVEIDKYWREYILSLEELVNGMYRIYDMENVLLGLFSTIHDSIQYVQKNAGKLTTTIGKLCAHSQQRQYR
# Chain of Glypican-3 (P51654 359-554 limits assumed): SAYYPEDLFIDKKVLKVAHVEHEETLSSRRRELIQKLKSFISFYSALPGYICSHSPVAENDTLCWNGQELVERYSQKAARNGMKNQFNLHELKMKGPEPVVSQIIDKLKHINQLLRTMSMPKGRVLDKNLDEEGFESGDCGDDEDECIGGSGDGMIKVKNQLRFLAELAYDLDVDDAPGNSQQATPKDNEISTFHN
compound,measurement,setting,value
C=Cc1c(C)c2cc3nc(c(CC(=O)O)c4[nH]c(cc5nc(cc1[nH]2)C(C)=C5CC)c(C)c4C(=O)NCCCC(=O)N[C@@H](CCCNC(=N)N)C(=O)N[C@@H](CC(C)C)C(=O)N[C@@H](CC(N)=O)C(=O)N[C@H](C(=O)NCC(=O)NCC(=O)N[C@H](C(=O)N[C@@H](Cc1ccc(O)cc1)C(=O)N[C@@H](Cc1ccccc1)C(=O)N[C@@H](CC(C)C)C(=O)N[C@H](C(=O)N[C@H](C(=O)N[C@@H](CCCNC(=N)N)C(=O)N[C@@H](CCC(N)=O)C(=O)O)[C@@H](C)O)[C@@H](C)O)[C@@H](C)O)C(C)C)[C@@H](CCC(=O)O)[C@@H]3C (HELM PEPTIDE1{[C=Cc1c(C)c2cc3nc(c(CC(=O)O)c4[nH]c(cc5nc(cc1[nH]2)C(C)=C5CC)c(C)c4C(=O)[*:2])[C@@H](CCC(=O)O)[C@@H]3C].[O=C(CCCN[*:1])[*:2]].R.L.N.V.G.G.T.Y.F.L.T.T.R.Q}$$$$V2.0),IC50,[1],2.1 µM
same,IC50,[2],> 100 µM
same,half-life,[3],2.4 h
same,IC50,[4],> 200 µM
same,IC50,[5],0.88 µM
same,IC50,[6],0.31 µM
same,IC50,[7],> 100 µM
same,Stability,[8],Stable
same,IC50,[9],> 100 µM
same,IC50,[10],0.25 µM
same,IC50,[11],0.72 µM
same,IC50,[12],> 100 µM
same,logP,[13],0.8
same,Activity,[14],Active
C=Cc1c(C)c2cc3nc(c(CC(=O)O)c4[nH]c(cc5nc(cc1[nH]2)C(C)=C5CC)c(C)c4C(=O)O)[C@@H](CCC(=O)O)[C@@H]3C [CHLORIN E6],Activity,[15],Non-Toxic
same,Drug uptake,[16],Active
same,IC50,[1],> 10 µM
same,Activity,[17],Active
same,Activity,[18],Non-Toxic
same,IC50,[2],> 100 µM
same,IC50,[4],> 200 µM
same,Activity,[19],Non-Toxic
same,IC50,[5],> 10 µM
same,Drug uptake,[20],Active
same,IC50,[6],16 µM
same,Activity,[21],Non-Toxic
same,Activity,[22],Non-Toxic
same,IC50,[7],> 100 µM
same,Activity,[23],Non-Toxic
same,IC50,[9],> 100 µM
same,IC50,[10],18 µM
same,Activity,[24],Active
same,Activity,[25],Non-Toxic
same,IC50,[11],> 10 µM
same,IC50,[12],> 100 µM
same,Activity,[26],Non-Toxic
same,Activity,[27],Active
same,TGI,[28],71.3%
same,Activity,[29],Non-Toxic
same,Drug uptake,[30],Active
same,Drug uptake,[31],Not Active
same,Activity,[32],inactive
same,Activity,[33],Non-Toxic
same,Activity,[34],Non-Toxic
same,Drug uptake,[35],Active
same,Kd,[36],> 10 µM
same,Activity,[14],Active
same,Activity,[37],Non-Toxic
H-DHLASLWWGTEL-OH,half-life,[3],1.1 h
